# Patent US9066922B2, “Pharmaceutical composition for the treatment or prevention of diseases involving obesity, diabetes, metabolic syndrome, neuro-degenerative diseases and mitochondria dysfunction diseases” (MD BIOALPHA CO., LTD., priority 2005, dated 2015)
# Tests used:
# DIO C57BL/6 mice [1] = experiment: Spontaneous locomotor activity in DIO C57BL/6 mice; assay type: in vivo; conditions: 3 hours after administration, measured for 7 hours, vs vehicle and control groups
# Experimental: β-lapachone was administered to DIO C57BL/6 mice, and 3 hours later, spontaneous locomotor activity was measured using Versa MAX Activity Monitors & Analyzer (AccuSan Instruments, Columbus, Ohio). The monitor used to measure motion of animals was a 41 cm×41 cm Plexiglas chamber (height: 30 cm) equipped with infrared rays at intervals of 2.5 cm along the x- and y-axes, respectively, whereby 16 scanning lines are respectively arranged on front/rear and right/left sides of the chamber. In order to distinguish between spontaneous locomotor and stereotypic/grooming behavior, animal activity was measured by taking continuous interference of two different scanning lines caused by mice as an effective determination standard. A β-lapachone-administered group, a vehicle-administered group and a control group were respectively placed in each measuring apparatus, and activity and motion of animals were measured for 7 hours. For acclimation of animal to new environment, mice were placed in the apparatus 2 hours prior to measurement.
# [2] = test system: mRNAs for HK2, GLUT2 and GLUT4; experiment: Gene expression of proteins involved in glucose metabolism in DIO mice; assay type: in vivo, C57BL/6 mice; conditions: 50 mg/kg daily oral, liver and gonadal adipose tissues, vs control group
# Experimental: β-lapachone was administered daily to diet-induced obesity (DIO) mice at a dose of 50 mg/kg via an oral route, and levels of mRNAs for hexokinase 2 (HK2) (21,22), glucose transporter (GLUT) 2 and GLUT4 (18,19,20) in the liver and gonadal adipose tissues were confirmed by real-time quantitative PCR. GLUT is well-known as a protein that mediates intracellular uptake and expenditure of blood glucose in organs such as liver, adipocytes and myoblast cells, whereas HK2, an enzyme belonging to a glucokinase class, phosphorylates […] that are thus allowed to enter glycolytic pathways. […] Increased levels of GLUT2 and GLUT4 facilitate intracellular uptake of blood glucose, thus presenting the possibility of β-lapachone as an anti-diabetic drug.
# DIO C57BL/6 mice [3] = experiment: Physical endurance (swimming test) in DIO C57BL/6 mice; assay type: in vivo; conditions: single administration, 3 hours later, vs control group
# Experimental: This Example was intended to measure difference in physical endurance of mice through a swimming test. For this purpose, water was placed in a cylindrical trough having a diameter of 9.5 cm and height of 25 cm, and β-lapachone was administered to DIO C57BL/6 mice. 3 hours later, a sample-administered group and a control group were placed simultaneously into each cylindrical trough for measurement, and physical endurance of each group was compared.
# [4] = test system: leptin-deficient (ob/ob) mice; experiment: Changes in leptin receptor-deficient (ob/ob) mice by administration of β-lapachone; assay type: in vivo; conditions: 56 days, vs control group
# Experimental: (§1) This is because fat degradation is facilitated and therefore sufficient amounts of energy are generated, despite similar dietary intake. […] In order to examine fat accumulation in the liver tissue, animals were laparotomized 56 days after administration of β-lapachone, and H&E staining (FIG. 21C) and EM examination (FIG. 21D) were performed on the liver tissue.
# [5] = test system: leptin receptor-deficient (ob/ob) mice; experiment: as above; assay type: in vivo
# Experimental: as §1
# AMPK = experiment: Activation of AMPK in liver and gonadal adipose tissues of C57BL/6 mice; assay type: in vivo; conditions: 5 mg/kg via tail veins, 2 hours and 4 hours
# Experimental: A vehicle and 5 mg/kg of β-lapachone were administered via tail veins to C57BL/6 mice for 2 hours and 4 hours, respectively. Liver and gonadal adipose tissues were removed and activity of AMPK kinase was assayed. A degree of activation was expressed as a CPM value of radioisotopes. Using the same manner, HepG2 cells, a cell line derived from human liver, were treated with 10 μM β-lapachone for 30 min, and then an assay for AMPK kinase activity was carried out.
# Sprague-Dawley rats = experiment: Acute toxicity test, peritoneal administration; assay type: in vivo; conditions: peritoneal, 50, 100 and 200 mg/kg, observed for 2 weeks
# AMPK and ACC = experiment: Phosphorylation of AMPK & ACC in DIO C57BL/6 mice (Western blot); assay type: in vivo; conditions: 50 mg/kg daily oral
# Experimental: In order to investigate anti-obesity effects of β-lapachone, β-lapachone was administered daily to diet-induced obesity (DIO) mice at a dose of 50 mg/kg via an oral route, and effects of β-lapachone on phosphorylation of AMPK and ACC, which play an important role in energy metabolism and lipogenesis in the liver and gonadal adipose tissues, were examined. […] Phosphorylated AMPK is believed to activate metabolism associated with energy. Whereas, it is believed that ACC, which is affected by activation of AMPK, is phosphorylated and lipogenic activity thereof is then inhibited, which will then exert some effects on lipid metabolism including inhibition of obesity.
# [6] = test system: mRNAs of ACC1, ACC2, FAS, LPL, SCD1; experiment: Expression of genes involved in lipid metabolism in DIO mice (real-time quantitative PCR); assay type: in vivo, C57BL/6 mice; conditions: 50 mg/kg daily oral, vs control group
# Experimental: In order to investigate anti-obesity effects of β-lapachone, β-lapachone was administered daily to diet-induced obesity (DIO) mice at a dose of 50 mg/kg via an oral route, and an attempt was made to confirm levels of mRNAs of acetyl CoA carboxylase (ACC) 1 (7,8), ACC2 (9), fatty acid synthase (FAS) (10,11), lipoprotein lipase (LPL) (12-15), and stearoyl-CoA desaturase 1 (SCD1) (16,17), which participate in lipid metabolism in the liver and gonadal adipose tissues, by real-time quantitative PCR. These enzymes are very important for lipid metabolism; it is known that ACC catalyzes formation of malonyl CoA from acetyl CoA, FAS catalyzes formation of palmitate from malonyl CoA, and SCD1 catalyzes formation of monounsaturated fat, thus playing a critical role in formation of triacylglycerol, a major energy store. As such, these enzymes are closely correlated with obesity, diabetes, and lipid metabolism-related diseases. […] Therefore, from the results of such increased or decreased expression of genes for the above-mentioned enzymes, it can be inferred that β-lapachone will be therapeutically effective substance for the treatment of metabolic syndromes.
# [7] = liver and gonadal adipose tissues
smiles,measurement,setting,value
"CC1(C)CCC2=C(O1)c1ccccc1C(=O)C2=O [Compound 1, β-Lapachone]",spontaneous locomotor activity,DIO C57BL/6 mice [1],significant difference in motion and locomotor activity
same,GLUT2 mRNA expression,[2],significant increases
same,GLUT4 mRNA expression,[2],significant increases
same,HK2 mRNA level,[2],decreased
same,swimming duration,DIO C57BL/6 mice [3],more than two-fold swimming duration
same,EM examination on liver tissues: fat vacuoles and glycogen stores,[4],remarkably decreased fat vacuoles and glycogen stores
same,dietary intake/body weight,"[5]; 150 or 200 mg/kg daily oral, 56 days",notably decreased around at 10 days of administration
same,body weight,"[5]; 150 or 200 mg/kg daily oral, 56 days, vs control group",continuous weight loss for 56 days
same,H&E staining on liver tissue: fat vacuoles,"[5]; 56 days after administration, vs control group",almost all fat vacuoles have disappeared
same,EM examination on liver tissues: mitochondrial numbers,"[5]; 56 days, vs control group",significant increases in mitochondrial numbers
same,EM examination on muscle tissue of limbs: mitochondrial shape,"[5]; 56 days, vs control group",recovery of normal mitochondrial shape
same,EM examination on muscle tissue of limbs: numbers of mitochondria,"[5]; 56 days, vs control group",significant increases in numbers of mitochondrial
same,AMPK activity in the liver and gonadal adipose tissues,AMPK,increased AMPK activity
same,mortality,Sprague-Dawley rats,none of the animals died
same,phosphorylation of AMPK and ACC in the gonadal and liver tissues,AMPK and ACC,has an effect on phosphorylation of AMPK and ACC
same,expression level of mRNA of ACC1,[6]; [7],remarkably decreased
same,expression level of mRNA of ACC2,[6]; [7],remarkably decreased
same,expression level of mRNA of FAS,[6]; [7],remarkably decreased
same,expression level of mRNA of LPL (listed among decreased),[6]; [7],remarkably decreased
same,expression level of mRNA of SCD1,[6]; [7],remarkably decreased
same,"LPL mRNA levels, increase",[6],2 fold
